Experimental findings from article PMC11892739, “Site-specific molecular glues for the 14-3-3/Tau pS214 protein–protein interaction via reversible covalent imine tethering” (RSC Medicinal Chemistry, 2025) are described below.

In this assay the target is T1, 14-3-3ζ/C-Raf peptide (Homo sapiens, UniProt P63104).
T1 construct: made in house; host or cells: NiCo21 (DE3) E. coli
The experiment in a line: FA peptide screen, 14-3-3ζ titration to client peptide and compound: C-Raf. The assay is classed as binding. The following applies: 250 μM compound, 100 nM peptide; +1 Thr. On the procedure:
Since the hub protein 14-3-3 binds to hundreds of phosphoprotein partners, selectivity of PPI stabilization is a major challenge. The interplay of chemical reactivity, and the topology and functionality of the composite binding pocket shaped by 14-3-3 and Tau potentially provide entries towards selective stabilization. […] Here, 14-3-3ζ was titrated to a constant concentration of client peptide (100 nM) and compound (250 μM) to determine the SF250μM values for the particular 14-3-3 PPI. A variety of 14-3-3 binding proteins was represented in this client panel whereby the size and hydrophobicity of the +1 amino acid were varied. […]
chromatography (HisTrap high performance cartridges, Cytiva). Typically two 5 mL columns were used for a 2 L culture in which the lysate was loaded on the column, washed with 10 CV wash buffer (50 mM Hepes, pH 8.0, 300 mM NaCl, 25 mM imidazole, 2 mM βME), and eluted with several fractions (2-4 CV) of elution buffer (50 mM Hepes, pH 8.0, 300 mM NaCl, 250 mM imidazole, 2 mM βME). […] Dialyzed protein was concentrated to ∼40 mg/mL, analyzed by Q -Tof LC/MS, and aliquots were flash -frozen for storage at −80 °C. […] Fractions containing the 14 -3-3 protein were pooled and concentrated to ∼60 mg/mL, analyzed Q -Tof LC/MS, and aliquots were flash -frozen for storage at −80°C.
Fluorescence Anisotropy – compound titration […]

T1 sequence (P63104 whole entry): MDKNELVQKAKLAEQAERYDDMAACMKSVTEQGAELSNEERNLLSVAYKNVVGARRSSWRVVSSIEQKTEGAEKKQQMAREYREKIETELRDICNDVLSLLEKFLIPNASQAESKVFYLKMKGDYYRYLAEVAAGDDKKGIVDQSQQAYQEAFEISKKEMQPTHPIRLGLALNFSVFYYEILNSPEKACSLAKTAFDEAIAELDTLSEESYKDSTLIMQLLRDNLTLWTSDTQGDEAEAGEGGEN

Take `CCc1ccc(-c2nccn2-c2ccc(C=O)c(Br)c2)cc1` [Compound 18]: the “stabilization of 14-3-3/C-Raf peptide (in words)” value is “did not show significant stabilizing activity”.
